# Results as given in patent publication US20100273722A1, “MODIFIED MINIATURE PROTEINS” (Yale University, priority 2007, published 2010).
# Like-named read-outs stand apart in the source and are kept apart here. Residues, ends and D or L forms follow the SMILES beside them.
# Legend:
# Hck kinase = biological target: T1, Hck kinase (Homo sapiens, UniProt P08631); experiment: Hck kinase activation, NADH-coupled assay; format: biochemical; conditions: for Activity / Fold-Activation: Activator 50 micromolar; for Fold-Activation: rate with ligand / rate without ligand; for EC50: read-out: Kact (concentration of activator at half-maximal activation)
# T1 construct: His6 (N); made in house; host or cells: HighFive insect cells, co-infected with Hck and Csk baculovirus
# T1 sequence (P08631 whole entry): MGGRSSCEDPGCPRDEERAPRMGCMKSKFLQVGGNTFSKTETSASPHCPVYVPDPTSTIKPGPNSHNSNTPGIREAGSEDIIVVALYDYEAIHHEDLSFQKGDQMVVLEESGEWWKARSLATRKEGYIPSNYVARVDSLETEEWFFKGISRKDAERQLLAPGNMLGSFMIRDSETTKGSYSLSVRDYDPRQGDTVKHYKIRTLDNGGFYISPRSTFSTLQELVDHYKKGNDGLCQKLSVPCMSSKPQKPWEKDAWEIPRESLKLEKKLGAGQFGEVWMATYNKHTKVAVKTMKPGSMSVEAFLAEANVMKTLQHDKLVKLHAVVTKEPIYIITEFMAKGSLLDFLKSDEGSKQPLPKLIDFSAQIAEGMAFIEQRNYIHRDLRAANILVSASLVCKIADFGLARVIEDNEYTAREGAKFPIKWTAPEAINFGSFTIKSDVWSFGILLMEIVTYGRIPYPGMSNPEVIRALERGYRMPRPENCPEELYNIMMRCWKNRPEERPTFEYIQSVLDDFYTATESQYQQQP
# Procedure: Activation of Hck kinase was measured using a validated NADH-coupled assay as described. Briefly, purified Hck kinase (15 micromolar) was first pre-incubated with 500 micromolar ATP and 20 mM MgCl2 for about 30 min on ice to initiate autophosphorylation of Y416. The autophosphorylated product (0.55 micromolar final concentration) was then incubated in Hck Reaction Buffer (20 mM MgCl2, 0.1 mM DTT, 20 μg/mL BSA, 100 mM HEPES (pH 7.5)) for 10 min at room temperature with the indicated concentration of Nef or miniature protein. At this time the remaining assay components (1 mM PEP, 0.2 mM NADH, 6 U pyruvate kinase (Type II from rabbit muscle, Sigma), 6 U L-lactic dehydrogenase (Type II from rabbit muscle, Sigma), 600 micromolar substrate peptide, and 500 micromolar ATP) were added to initiate the reaction (total volume 200 microliters) and the absorbance at 340 nm was monitored every 10 sec for 10 min using a Beckman DU 730 UVN is Spectrophotomer. The activation constant Kact for each ligand was calculated from the initial rate as a function of ligand concentration as previously described, using Eq. 6. Fold activation was calculated by dividing the rate in the presence of ligand by the rate in the absence of ligand.
# va=Vact[L]/(Kact±[L]) Equation 6.
# In this equation va is velocity measured in the presence of ligand minus the velocity measured in its absence; Vact is the maximal activated velocity minus the velocity measured in the absence of ligand; [L] is the concentration of activator and Kact is concentration of activator at half-maximal activation.
# [1] = biological target: c-Src SH3 domain-GST fusion protein (Gallus gallus, UniProt P00523); experiment: Fluorescence polarization direct binding assay, c-Src SH3; set-up: species or system chicken; conditions: 50 nM fluorescently labeled ligand, read-out: Kd, c-Src SH3
# Procedure: Polarization was measured by excitation with vertically polarized light at 485 nm and the fluorescence emission detected at 530 nm in both the vertical and horizontal directions. An average of five measurements were recorded for each well. Samples were equilibrated at room temperature for 25 min before analysis, a time sufficient for the binding reactions to reach equilibrium. The polarization data were fit using Kaleidagraph v3.6 software to Eq. 5, which is derived from first principles without assumptions. […] In this equation, Pobs is the observed polarization value at any given concentration of target protein (GST•SH3 domain). Pmin is the polarization of peptide^Flu at 50 nM in the absence of target protein. Pmax is the maximum polarization of peptide^Flu at saturation with target protein. Kd is the equilibrium dissociation constant. […] Free fits are shown. Kd values were estimated as described.
# [2] = Sedimentation equilibrium analytical ultracentrifugation of aPP variants, monomer-n-mer fit (self-association); format: physicochemical; conditions: for n (stoichiometry of the self-associated complex): monomer-n-mer fit; for n (stoichiometry of the self-associated complex) / lnKA when n = 4 / % monomer at 30 μM: 25° C.; for lnKA when n = 4: monomer-tetramer; for Kd (self-association, tetramer): n = 4, 25° C., calculated from ln KA; for % monomer at 30 μM: 30 μM peptide
# Procedure: Analytical ultracentrifugation experiments were performed using peptide solutions prepared in Tris.Cl buffer (25 mM Tris base, 50 mM NaCl, (pH 8.0)) at the appropriate concentrations (5 micromolar to 200 micromolar). Samples were then centrifuged to equilibrium at 25° C. at 42,000, 50,000, and 60,000 rpm. Data were collected with a 0.001 cm step size and successive scans were initiated at 2 h intervals. Samples were judged to have reached equilibrium when the radial concentration gradient remained unchanged over three successive scans using the Match module of Heteroanalysis software v1.1.19. The solvent density (ρ, rho) and partial specific volume ( ν, nu) were calculated using the Sedimentation Interpretation Program “Sednterp” software v1.08.
# The data for each peptide (multiple concentrations at three speeds) was first fit globally to an equation describing the sedimentation of an ideal species of molecular weight Mn (Eq. 1) using Heteroanalysis software v1.1.19:
# where C represents the concentration of the sedimenting species at distances r and r0 cm from the center of rotation; ν (nu) is the partial specific volume of the sedimenting species in cc/g; ρ (rho) is the density of the supporting buffer in g/cc; ω (omega) is the angular velocity of the rotor (radians/s); Mn is the “molar” molecular weight of sedimenting species (g/mol); R is the universal gas constant (8.315×10^7 ergs K^−1 mol^−1) and T is the temperature in degrees Kelvin.
# In order to quantify this self-association, the data for each peptide was next fit globally to a monomer-n-mer equilibrium model using Eq. 2:
# where n is the stoichiometry of the self-associated complex. Errors were calculated for n and lnKA using f-statistics to two standard deviations.
# Samples were prepared in PBS buffer and centrifuged at speeds of 42,000 (41), 50,000 (42), or 60,000 RPM (43) at 25° C. Experimental data are shown as points; lines indicate the best fit to a monomer-n-mer model described by Eq. 2.
Compound,Activity (Hck kinase) [nmol/s],Fold-Activation (Hck kinase),Kd ([1]; PBS pH 7.4) [µM],EC50 (Hck kinase) [µM],Kd [1] [µM],n (stoichiometry of the self-associated complex) [2],lnKA when n = 4 [2],"Kd (self-association, tetramer) [2]",% monomer at 30 μM [2] [%]
CC[C@H](C)[C@H](NC(=O)[C@H](CC(C)C)NC(=O)[C@H](CC(=O)O)NC(=O)[C@H](CCC(=O)O)NC(=O)[C@@H](NC(=O)[C@@H]1CCCN1C(=O)[C@H](C)NC(=O)[C@H](CC(=O)O)NC(=O)[C@H](CC(=O)O)NC(=O)CNC(=O)[C@@H]1CCCN1C(=O)[C@H](CC(N)=O)NC(=O)[C@H](CCCNC(=N)N)NC(=O)[C@@H]1CCCN1C(=O)[C@@H]1CCCN1C(=O)[C@H](CC(C)C)NC(=O)[C@@H]1CCCN1C(=O)[C@@H]1CCCN1C(=O)[C@H](C)N)C(C)C)C(=O)N[C@@H](CCCNC(=N)N)C(=O)N[C@@H](Cc1ccccc1)C(=O)N[C@@H](Cc1ccc(O)cc1)C(=O)N[C@@H](CC(=O)O)C(=O)N[C@@H](CC(N)=O)C(=O)N[C@@H](CC(C)C)C(=O)N[C@@H](CCC(N)=O)C(=O)N[C@@H](CCC(N)=O)C(=O)N[C@@H](Cc1ccc(O)cc1)C(=O)N[C@@H](CC(C)C)C(=O)N[C@@H](CC(N)=O)C(=O)N[C@H](C(=O)N[C@H](C(=O)N[C@H](C(=O)N[C@@H](CCCNC(=N)N)C(=O)N[C@@H](Cc1c[nH]cn1)C(=O)N[C@@H](CCCNC(=N)N)C(=O)N[C@@H](Cc1ccc(O)cc1)C(N)=O)[C@@H](C)O)C(C)C)C(C)C [PP1] (H-APPLPPRNPGDDAPVEDLIRFYDNLQQYLNVVTRHRY-NH2),83.6 ± 6.0,8 ± 3,3.68 ± 0.06,,,,,,
CC[C@H](C)[C@H](NC(=O)[C@H](CC(C)C)NC(=O)[C@H](CC(=O)O)NC(=O)[C@H](CCC(=O)O)NC(=O)[C@@H](NC(=O)[C@@H]1CCCN1C(=O)[C@H](C)NC(=O)[C@H](CC(=O)O)NC(=O)[C@H](CC(=O)O)NC(=O)CNC(=O)[C@H](CCCNC(=N)N)NC(=O)[C@H](CC(N)=O)NC(=O)[C@H](CCCNC(=N)N)NC(=O)[C@@H]1CCCN1C(=O)[C@@H]1CCCN1C(=O)[C@H](CC(C)C)NC(=O)[C@@H]1CCCN1C(=O)[C@@H]1CCCN1C(=O)[C@H](C)N)C(C)C)C(=O)N[C@@H](CCCNC(=N)N)C(=O)N[C@@H](Cc1ccccc1)C(=O)N[C@@H](Cc1ccc(O)cc1)C(=O)N[C@@H](CC(=O)O)C(=O)N[C@@H](CC(N)=O)C(=O)N[C@@H](CC(C)C)C(=O)N[C@@H](CCC(N)=O)C(=O)N[C@@H](CCC(N)=O)C(=O)N[C@@H](Cc1ccc(O)cc1)C(=O)N[C@@H](CC(C)C)C(=O)N[C@@H](CC(N)=O)C(=O)N[C@H](C(=O)N[C@H](C(=O)N[C@H](C(=O)N[C@@H](CCCNC(=N)N)C(=O)N[C@@H](Cc1c[nH]cn1)C(=O)N[C@@H](CCCNC(=N)N)C(=O)N[C@@H](Cc1ccc(O)cc1)C(N)=O)[C@@H](C)O)C(C)C)C(C)C [PP2] (H-APPLPPRNRGDDAPVEDLIRFYDNLQQYLNVVTRHRY-NH2),138.8 ± 7.6,13 ± 5,1.3 ± 0.2,48 ± 13,,,,,
CC[C@H](C)[C@H](NC(=O)[C@H](CC(C)C)NC(=O)[C@H](CC(=O)O)NC(=O)[C@H](CCC(=O)O)NC(=O)[C@@H](NC(=O)[C@@H]1CCCN1C(=O)[C@H](C)NC(=O)[C@H](CC(=O)O)NC(=O)[C@H](CCCNC(=N)N)NC(=O)[C@@H]1CCCN1C(=O)[C@H](CCCNC(=N)N)NC(=O)[C@H](CC(N)=O)NC(=O)[C@H](CCCNC(=N)N)NC(=O)[C@@H]1CCCN1C(=O)[C@@H]1CCCN1C(=O)[C@H](CC(C)C)NC(=O)[C@@H]1CCCN1C(=O)[C@@H]1CCCN1C(=O)[C@H](C)N)C(C)C)C(=O)N[C@@H](CCCNC(=N)N)C(=O)N[C@@H](Cc1ccccc1)C(=O)N[C@@H](Cc1ccc(O)cc1)C(=O)N[C@@H](CC(=O)O)C(=O)N[C@@H](CC(N)=O)C(=O)N[C@@H](CC(C)C)C(=O)N[C@@H](CCC(N)=O)C(=O)N[C@@H](CCC(N)=O)C(=O)N[C@@H](Cc1ccc(O)cc1)C(=O)N[C@@H](CC(C)C)C(=O)N[C@@H](CC(N)=O)C(=O)N[C@H](C(=O)N[C@H](C(=O)N[C@H](C(=O)N[C@@H](CCCNC(=N)N)C(=O)N[C@@H](Cc1c[nH]cn1)C(=O)N[C@@H](CCCNC(=N)N)C(=O)N[C@@H](Cc1ccc(O)cc1)C(N)=O)[C@@H](C)O)C(C)C)C(C)C [PP3] (H-APPLPPRNRPRDAPVEDLIRFYDNLQQYLNVVTRHRY-NH2),83.9 ± 5.4,7 ± 3,,48 ± 22,0.35 ± 0.04,,,,
GPSQPTAPGDDAPVEDLIRFYDNLQQYLNVVTRHRY [aPP^Y7A],,,,,,3.77,when n = 4 26.28,3.9×10^−12 M^3,
GPSQPTAPGDDAPVEDLIRFYDNLRQYLNVVTRHRY [aPP^Y7AQ25R],,,,,,4.06,when n = 4 29.34,1.8 × 10^−13 M^3,78
GPSQPTAPGDDAVPEDLIRFYDNLQQYLNVVTRHRY [aPP^Y7AP13VV14P],,,,,,4.48,when n = 4 27.92,7.5 × 10^−13 M^3,90
GPSQPTYPGDDAPVEDLIRAYDNLQQYLNVVTRHRY [aPP^F20A],,,,,,3.87,when n = 4 23.29,7.6×10^−11 M^3,
"aPP^Y7AT6E: SEQ ID NO: 8, CPSQPEAPGDDAPVEDLIRFYDNLQQYLNVVTRHRY (Table 1 prints GPSQPE...)",,,,,,3.88,,2.0 × 10^−13 M^3,79
